# Publication PMC8440923, “Peptides Targeting the Interaction Between Erb1 and Ytm1 Ribosome Assembly Factors” (Frontiers in Molecular Biosciences, 2021)
# Residues, ends and D or L forms follow the SMILES beside them. No end group written: not given here. *: point of attachment. Biotin = O=C1N[C@H]2[C@H](CS[C@H]2CCCCC(=O)*)N1
# B1: Peptide P1 (Erb1 479-489) (peptide)
# peptide: VWELLTGRQVW
# notes: Erb1, Chaetomium thermophilum, residues 479-489; source: synthetic peptide, bought: Synpeptide Co., Ltd., Shanghai
# B2: Biot-P1 (N-terminally biotinylated Erb1 479-489) (peptide)
# peptide: Biotin-VWELLTGRQVW
# notes: as for B1
# B3: Biot-P3 (N-terminally biotinylated Erb1 780-789) (peptide)
# peptide: Biotin-DWHPREPWCV
# notes: Erb1, Chaetomium thermophilum, residues 780-789; source: synthetic peptide, bought: Synpeptide Co., Ltd., Shanghai
# What was measured:
# Erb1/Ytm1 complex [1] = biological target: T1, Erb1/Ytm1 complex (Thermochaetoides thermophila, UniProt G0SCK6); assay: Biolayer interferometry peptide interference assay, immobilized Ytm1, Erb1 analyte preincubated with P4-P6; type: binding, Chaetomium thermophilum; details: BLI, 20 µM Erb1 preincubated with equimolar peptide, reference without peptide 1.201e-3
# T1 construct: 6xHis; made in house; host or cells: Erb1: Escherichia coli (DE3) BL21 CodonPlus (RIPL); Ytm1: Sf9 insect cells (baculovirus)
# T1 sequence (G0SCK6 whole entry, one chain of several): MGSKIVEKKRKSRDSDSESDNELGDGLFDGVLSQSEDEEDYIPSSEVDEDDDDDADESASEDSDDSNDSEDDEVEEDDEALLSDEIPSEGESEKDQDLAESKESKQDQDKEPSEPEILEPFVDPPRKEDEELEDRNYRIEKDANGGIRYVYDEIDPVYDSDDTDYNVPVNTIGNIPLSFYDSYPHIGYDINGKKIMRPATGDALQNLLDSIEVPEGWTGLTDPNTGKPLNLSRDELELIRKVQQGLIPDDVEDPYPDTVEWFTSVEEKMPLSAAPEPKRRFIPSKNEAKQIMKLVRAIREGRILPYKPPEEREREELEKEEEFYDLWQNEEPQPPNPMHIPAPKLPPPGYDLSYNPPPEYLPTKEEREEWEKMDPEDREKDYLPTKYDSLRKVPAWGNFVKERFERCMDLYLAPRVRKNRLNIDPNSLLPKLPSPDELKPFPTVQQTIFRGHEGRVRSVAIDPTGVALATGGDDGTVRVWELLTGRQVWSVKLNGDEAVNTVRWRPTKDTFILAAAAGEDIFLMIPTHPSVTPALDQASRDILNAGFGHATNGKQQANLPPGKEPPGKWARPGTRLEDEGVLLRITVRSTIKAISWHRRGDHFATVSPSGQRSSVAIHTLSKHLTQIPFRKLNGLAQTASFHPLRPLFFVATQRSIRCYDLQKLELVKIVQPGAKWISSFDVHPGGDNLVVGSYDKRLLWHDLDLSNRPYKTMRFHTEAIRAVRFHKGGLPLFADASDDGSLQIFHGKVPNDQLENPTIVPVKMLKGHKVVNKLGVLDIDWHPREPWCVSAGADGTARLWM
# Ytm1 [2] = biological target: T2, Ytm1 (Thermochaetoides thermophila, UniProt G0SFB5); assay: Differential scanning fluorimetry (thermofluor) of Ytm1 with peptide; type: binding, Chaetomium thermophilum; details: DSF, SYPRO Orange 1:1,000; 5 µM Ytm1, 1 mM peptide; 50 mM HEPES pH 7.5, 150 mM NaCl; 20-85°C at 1°C/min; triplicates
# T2 construct: 6xHis; made in house; host or cells: Sf9 insect cells (baculovirus)
# T2 sequence (G0SFB5 1-495): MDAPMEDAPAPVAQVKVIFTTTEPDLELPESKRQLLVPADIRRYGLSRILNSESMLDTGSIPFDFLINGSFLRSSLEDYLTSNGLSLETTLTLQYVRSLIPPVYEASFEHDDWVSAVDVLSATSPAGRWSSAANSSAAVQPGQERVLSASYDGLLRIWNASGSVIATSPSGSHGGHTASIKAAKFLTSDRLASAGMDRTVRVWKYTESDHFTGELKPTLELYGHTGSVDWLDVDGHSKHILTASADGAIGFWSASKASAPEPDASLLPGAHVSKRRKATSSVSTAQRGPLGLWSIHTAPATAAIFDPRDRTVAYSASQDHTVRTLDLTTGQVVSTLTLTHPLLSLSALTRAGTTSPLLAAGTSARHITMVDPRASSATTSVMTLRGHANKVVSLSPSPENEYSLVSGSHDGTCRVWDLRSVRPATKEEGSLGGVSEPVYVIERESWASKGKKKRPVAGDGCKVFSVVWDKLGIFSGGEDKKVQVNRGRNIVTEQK
# Experimental: Thermofluor assays ([Pantoliano et al., 2001]) were performed on a 7,500 Fast Real-Time PCR System (Applied Biosystems) measuring the gradual fluorescence generated by a 1:1,000 dilution of SYPRO Orange Protein Stain Gel (Supelco, Merck-Sigma) along with 1°C/min temperature increase from 20°C until 85°C.
# The samples were mixed containing the protein Ytm1 at 5 µM in 50 mM HEPES pH 7.5, 150 mM NaCl and peptides P1-P3 at 1 mM concentration. Previously, lyophilized P2 and P3 were resuspended in the same Ytm1 buffer and P1 was solubilized in 10 mM Tris (hydroxymethyl)-methylamine (Tris-HCl), pH 8.8 for P1. Data of triplicated experiments were analyzed using GraphPad Prism 5.01 software.
# Erb1/Ytm1 complex [3] = biological target: T3, Erb1/Ytm1 complex (Thermochaetoides thermophila, UniProt G0SFB5); assay: Biolayer interferometry peptide interference assay, immobilized Erb1, Ytm1 analyte preincubated with P1-P3; type: binding, Chaetomium thermophilum; details: BLI, 5 µM Ytm1 preincubated with equimolar peptide, reference without peptide 1.724e-3
# T3 construct: 6xHis; made in house; host or cells: Ytm1: Sf9 insect cells (baculovirus); Erb1: Escherichia coli (DE3) BL21 CodonPlus (RIPL)
# T3 sequence (G0SFB5 1-495): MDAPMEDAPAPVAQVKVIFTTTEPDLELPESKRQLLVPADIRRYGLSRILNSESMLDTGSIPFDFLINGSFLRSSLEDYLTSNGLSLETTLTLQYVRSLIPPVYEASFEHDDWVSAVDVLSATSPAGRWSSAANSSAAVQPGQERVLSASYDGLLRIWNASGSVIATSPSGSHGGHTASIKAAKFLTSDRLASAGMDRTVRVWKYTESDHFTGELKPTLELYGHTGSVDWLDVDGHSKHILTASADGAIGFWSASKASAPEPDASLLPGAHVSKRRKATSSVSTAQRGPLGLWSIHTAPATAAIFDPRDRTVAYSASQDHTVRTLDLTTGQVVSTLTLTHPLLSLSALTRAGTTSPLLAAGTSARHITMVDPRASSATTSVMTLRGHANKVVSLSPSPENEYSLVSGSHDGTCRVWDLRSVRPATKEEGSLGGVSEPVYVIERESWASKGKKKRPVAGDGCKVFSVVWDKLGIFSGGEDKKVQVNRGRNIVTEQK
# Experimental: (§1) Peptides were commercially obtained from Synpeptide Co., Ltd., Shanghai, China. All experiments have been made in triplicates and include control curves for bait and analyte only.
# Potential interference peptide samples were evaluated by their ability to interfere the kinetics and affinity of the complex between Erb1 and Ytm1 as measured by Biolayer Interferometry (BLItz, Pall FortéBio Corp.) using Ni-NTA biosensors (FortéBio) and 50 mM HEPES, pH 7.5; 150 mM NaCl; 5% (v/v) glycerol; and 2 mM β-mercaptoethanol (BME) buffer. To set the reference KD, an 80 µg/ml solution of Erb1 was immobilized to the biosensor in order to obtain binding curves for increasing concentrations of Ytm1. According to this, an evaluation of Erb1-derived peptides (P1–P3) was performed using 5 µM Ytm1 previously incubated during 30 min at equimolar concentrations of each peptide. New KD values were determined. […]
# Biolayer interferometry interference assays were used to evaluate the ability of each peptide to interfere in the in vitro formation of the Erb1/Ytm1 complex. […] Peptides were evaluated for their ability to decrease in the Erb1/Ytm1 complex formation by preincubating the analyte with each peptide derived from the immobilized partner. […] Erb1-derived peptides were evaluated by their ability to decrease Erb1/Ytm1 complex affinity. […]
# Ytm1 [4] = biological target: T2, Ytm1; assay: Biolayer interferometry peptide affinity assay, immobilized biotinylated peptide, Ytm1 analyte; parameters: species or system Chaetomium thermophilum; details: BLI, streptavidin biosensor, 50 µg/ml biotinylated peptide immobilized, read-out: ka (1/Ms) of Ytm1 binding to immobilized biotinylated peptide
# Experimental: as §1
# BLI was used to determine the affinity between Ytm1 and biotinylated peptides using streptavidin biosensors (FortéBio). The biosensors were hydrated 10 min in the same buffer used on the interference assay, with 0.05% (w/v) bovine serum albumin (BSA). 50 µg/ml of biotinylated peptide was immobilized at the streptavidin biosensor. Increasing concentrations of Ytm1 were used to calculate the KD values using the Blitz Pro 1.2 software using the implemented equations for association and dissociation:
# Association phase: y=Rmax 1/1+kd/ka∗[Analyte](1−e^−(ka∗[Analyte]+kd)x) .
# Dissociation phase: y=y0 e^−kd(x−x0). y0=Rmax 1/1+kd/ka∗[Analyte](1−e^−(ka∗[Analyte]+kd)x0).
# According to P1, P3, and P6 results, a new N-terminal biotynilated peptide synthesis was ordered using the same sequences (Biot-P1, Biot-P3, and Biot-P6, Table 1). Biotynilated peptides Biot-P1 and Biot-P3 were immobilized to the streptavidin biosensor and Ytm1 binding was measured. Similarly, Biot-P6 was immobilized to the streptavidin biosensor followed by Erb1 binding. […] Inconsistent results were obtained in DSF using Erb1 and a proper Tm could not be obtained so thermal shift could not be evaluated for P6.
# Erb1 = assay: Biolayer interferometry peptide affinity assay, immobilized biotinylated peptide, Erb1 analyte; type: binding, Chaetomium thermophilum; details: BLI, streptavidin biosensor, Erb1 as analyte
# Experimental: as §1
# BLI was used to determine the affinity between Ytm1 and biotinylated peptides using streptavidin biosensors (FortéBio). The biosensors were hydrated 10 min in the same buffer used on the interference assay, with 0.05% (w/v) bovine serum albumin (BSA). 50 µg/ml of biotinylated peptide was immobilized at the streptavidin biosensor. Increasing concentrations of Ytm1 were used to calculate the KD values using the Blitz Pro 1.2 software using the implemented equations for association and dissociation: […]
# According to P1, P3, and P6 results, a new N-terminal biotynilated peptide synthesis was ordered using the same sequences (Biot-P1, Biot-P3, and Biot-P6, Table 1). Biotynilated peptides Biot-P1 and Biot-P3 were immobilized to the streptavidin biosensor and Ytm1 binding was measured. Similarly, Biot-P6 was immobilized to the streptavidin biosensor followed by Erb1 binding. […] To further confirm the interaction a differential scanning fluorimetry assay was performed. […] Inconsistent results were obtained in DSF using Erb1 and a proper Tm could not be obtained so thermal shift could not be evaluated for P6.
# [5] = biological target: T4, Ytm1 (Chaetomium thermophilum ribosome assembly factor) (Chaetomium thermophilum, UniProt G0SFB5 1-495); assay: MST; 5 nM Ytm1 labelled with Red-NHS second-generation dye; 50 mM HEPES pH 7.5, 150 mM NaCl, 0.1% Pluronic F-127; peptide in sixteen serial dilutions (P1 1,230-0.0751 µM; P3 maximum 1,580 µM); Monolith NT.115; details: both partners purified
# T4 construct: Ytm1, Chaetomium thermophilum; YTM1 gene amplified from total cDNA and cloned in pOPIN-F; For MST, Ytm1 was labelled with the Red-NHS second-generation dye; source: Sf9 insect cells (baculovirus), purified (Histrap-HP Ni, Superdex 200 SEC)
# T4 sequence: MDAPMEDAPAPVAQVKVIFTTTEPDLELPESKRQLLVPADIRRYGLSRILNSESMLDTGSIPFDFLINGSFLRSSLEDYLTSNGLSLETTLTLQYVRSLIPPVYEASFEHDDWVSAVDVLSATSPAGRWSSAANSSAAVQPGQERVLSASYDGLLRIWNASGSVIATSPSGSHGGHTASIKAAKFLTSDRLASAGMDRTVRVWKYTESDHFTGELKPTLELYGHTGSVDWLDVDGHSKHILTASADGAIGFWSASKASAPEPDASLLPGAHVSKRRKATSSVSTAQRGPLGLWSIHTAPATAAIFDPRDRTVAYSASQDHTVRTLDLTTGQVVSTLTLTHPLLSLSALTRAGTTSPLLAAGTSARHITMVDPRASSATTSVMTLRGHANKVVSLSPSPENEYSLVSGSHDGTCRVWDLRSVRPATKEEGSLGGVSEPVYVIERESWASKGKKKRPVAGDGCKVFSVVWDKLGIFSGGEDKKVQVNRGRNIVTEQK
# [6] = biological target: T5, Ytm1 (Chaetomium thermophilum ribosome assembly factor) (Chaetomium thermophilum, UniProt G0SFB5 1-495); assay: BLI
# T5 chain: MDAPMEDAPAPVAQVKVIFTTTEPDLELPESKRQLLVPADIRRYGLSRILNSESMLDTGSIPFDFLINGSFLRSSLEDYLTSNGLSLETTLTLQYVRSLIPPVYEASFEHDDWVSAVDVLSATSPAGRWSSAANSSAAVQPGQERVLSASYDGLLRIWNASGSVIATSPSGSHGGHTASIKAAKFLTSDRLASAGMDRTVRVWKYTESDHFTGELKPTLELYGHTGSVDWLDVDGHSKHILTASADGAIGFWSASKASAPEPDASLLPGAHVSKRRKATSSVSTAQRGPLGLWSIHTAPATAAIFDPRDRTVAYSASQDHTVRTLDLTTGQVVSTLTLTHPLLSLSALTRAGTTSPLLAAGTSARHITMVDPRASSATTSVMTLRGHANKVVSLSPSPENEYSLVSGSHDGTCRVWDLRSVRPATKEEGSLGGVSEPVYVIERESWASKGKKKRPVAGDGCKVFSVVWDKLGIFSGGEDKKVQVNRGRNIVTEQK
# [7] = biological target: T4, Ytm1 (Chaetomium thermophilum ribosome …); assay: BLI; biotinylated peptide (50 µg/ml) immobilised on streptavidin biosensor; Ytm1 (or Erb1 for Biot-P6) as analyte; interference-assay buffer with 0.05% BSA; details: both partners purified
molecule,measurement,setting,value
"AGMDRTV [Peptide P5, Ytm1-derived peptide AGMDRTV, residues 194–200]",kd (1/s) of Ytm1/Erb1 binding after preincubation of Erb1 with peptide,Erb1/Ytm1 complex [1],0.001655 s⁻¹
"HDDWVSA [Peptide P4, Ytm1-derived peptide HDDWVSA, residues 110–116]",kd (1/s) of Ytm1/Erb1 binding after preincubation of Erb1 with peptide,Erb1/Ytm1 complex [1],0.001585 s⁻¹
"QQTIFRGH [Peptide P2, Erb1-derived peptide QQTIFRGH, residues 445–452]",Thermal shift (Tm) of Ytm1 in the presence of peptide,Ytm1 [2],no significant thermal shift
same,kd (1/s) of Erb1/Ytm1 binding after preincubation of Ytm1 with peptide,Erb1/Ytm1 complex [3],0.01393 s⁻¹
CC(C)[C@H](NC(=O)[C@H](CS)NC(=O)[C@H](Cc1c[nH]c2ccccc12)NC(=O)[C@@H]1CCCN1C(=O)[C@H](CCC(=O)O)NC(=O)[C@H](CCCNC(=N)N)NC(=O)[C@@H]1CCCN1C(=O)[C@H](Cc1c[nH]cn1)NC(=O)[C@H](Cc1c[nH]c2ccccc12)NC(=O)[C@H](CC(=O)O)NC(=O)CCCC[C@@H]1SC[C@@H]2NC(=O)N[C@@H]21)C(=O)O [Biot-P3] (Biotin-DWHPREPWCV-OH),kon,Ytm1 [4],829 M⁻¹ s⁻¹
Biotin-RGHANKV [Biot-P6],Binding of Erb1 to immobilized biotinylated peptide,Erb1,could not detect binding
same,Binding of Erb1 to immobilized biotinylated peptide,Erb1; listed as biot-P6,did not show binding
CC(C)C[C@H](NC(=O)[C@H](CCC(=O)O)NC(=O)[C@H](Cc1c[nH]c2ccccc12)NC(=O)[C@@H](NC(=O)CCCC[C@@H]1SC[C@@H]2NC(=O)N[C@@H]21)C(C)C)C(=O)N[C@@H](CC(C)C)C(=O)N[C@H](C(=O)NCC(=O)N[C@@H](CCCNC(=N)N)C(=O)N[C@@H](CCC(N)=O)C(=O)N[C@H](C(=O)N[C@@H](Cc1c[nH]c2ccccc12)C(=O)O)C(C)C)[C@@H](C)O [Biot-P1] (Biotin-VWELLTGRQVW-OH),kon,Ytm1 [4],386 M⁻¹ s⁻¹
B1,Kd,[5],8.2 µM
B2,Kd,[6],33.4 µM
same,binding result,[7],binds
B3,Kd,[6],6.29 µM
same,binding result,[7],binds
